Assay results published in US8932581B2, “Calcium-mediated effects of coral and methods of use thereof” (Ben Gurion University of the Negev Research and Development …, priority 2007, dated 2015).

System: mesenchymal stem cells (MSCs)
Assay: Scanning Electron Micrographs of MSC density on coral biomatrices with and without calcium chelator
Assay type: cell-based, Mus-musculus
Details: incubation with the calcium chelator; FIGS. 2Aj, 2Al
Experimental: Two biomaterial derivatives were prepared, one from the hydrocoral M. dichotoma (designated MIL) and the other, for purposes of comparison, from scleractinian coral P. lutea—(designated POR). Colonies of M. dichotoma were collected from the shallow seawater zones adjacent to the Interuniversity Institute of Marine Science (IUD in Eilat, Israel, at depths of 6-8 meters. Each colony was cut into fragments and glued with epoxy resin into the tops of PVC tubes. After an adjustment period of 3 months, cloned fragments were transferred to a laboratory tank system. POR were prepared from cores drilled out from long-lived massive colonies.
Both types of skeleton were cut into blocks and bleached using a commercial hypochloride solution. After this preliminary cleaning process, samples were rinsed with distilled water and air-dried. […]
Images were acquired using an Axiovert-200 (Zeiss, Germany) inverted microscope equipped with X20 Plan-Neofluar (N.A. 0.50) and X40 LD-Acrhoplan objectives (N.A. 0.60) and a cooled CCD camera (SensiCam, PCO, USA) controlled by Metamorph (version 6.2, Universal Imaging, Downingtown, Pa.). […] Cells were counted manually, and the numbers were averaged and interpolated for 1 mm^2 of crystalline surface.

O=C(O)CN(CCOCCOCCN(CC(=O)O)CC(=O)O)CC(=O)O [EGTA, O,O′-bis(2-aminoethyl)ethyleneglycol tetraacetic acid]
local cell density on coral seeded with MSCs, effect of calcium chelator: further increased local cell density
